We go through 1 compound from ChEMBL document CHEMBL1949588, “Synthesis of [¹¹C]uric acid, using [¹¹C]phosgene, as a possible biomarker in PET imaging for diagnosis of gout” (Bioorg Med Chem Lett, 2012).

Data set [1] is described as follows: Drug uptake in potassium oxonate treated Sprague-Dawley rat hyperuricemic model limb at 22 to 30 MBq, iv after 65 to 70 mins by PET analysis. To be noted: in vivo. In kind it is ADME, organism-based.
In data set [2] the test system is Blood. Description: Ratio of drug uptake in potassium oxonate treated Sprague-Dawley rat hyperuricemic model blood at 22 to 30 MBq, iv after 65 to 70 mins to drug uptake in normal rat. In kind it is ADME, organism-based. Particulars: in vivo; call rule not given here.
For another data set, the system named is Rattus norvegicus. Description: Ratio of drug uptake in potassium oxonate treated Sprague-Dawley rat hyperuricemic model at 22 to 30 MBq, iv after 60 mins to drug uptake in normal rat. In kind it is ADME, organism-based. Particulars: in vivo, 1 h.
For data set [3], the system named is Blood. Description: Metabolic stability in Sprague-Dawley rat blood assessed as formation of [11C][…] metabolite at 22 to 30 MBq, iv after 30 mins by radiometric HPLC analysis. Particulars: in vivo, 0.5 h. In kind it is ADME, organism-based.
Data set [4] in a line: Metabolic stability in potassium oxonate treated Sprague-Dawley rat hyperuricemic model blood assessed as compound remaining at 22 to 30 MBq, iv after 30 mins by radiometric HPLC analysis. In kind it is ADME, organism-based. To be noted: read-out: Stability.
The subject of data set [5] is Blood. Put plainly: Drug uptake in potassium oxonate treated Sprague-Dawley rat hyperuricemic model blood at 22 to 30 MBq, iv after 60 mins by gamma counting. To be noted: in vivo, 1 h.

Turning to `O=c1[nH]c(=O)c2[nH][11c](=O)[nH]c2[nH]1`, the results for the Drug uptake entry (in data set [1]; in the data set on Blood [5]) were “Active” and 0.57 %ID, respectively. Further, the Ratio was 1.6 with Blood [2] and 1.7 with Rattus norvegicus. The Stability entry in the data set on Blood [3] was “Unstable”. The remaining at 0.5 h in data set [4] was found to be 100%.
